According to patent US9907760B2 (LIBRAGEN, priority 2010, dated 2018):
Marks after values point to notes of the source that are not given here.

Experiments:
Format in all cases: cell-based
[1] = test system: normal human keratinocytes; experiment: Hyaluronic acid production by normal human keratinocytes (HA-ELISA of supernatant); conditions: for % stimulation of hyaluronic acid synthesis: vs Control
Method: Normal human keratinocytes were cultured to confluence. Cells were treated with the test products for 48 hours. The supernatants, containing hyaluronic acid, were collected and assayed immediately. Hyaluronic acid was quantified with an ELISA microtiter plate.
Primocultures of normal human keratinocytes (NHK) were obtained from cells isolated from skin specimens from plastic surgery.
NHK were seeded at a density of 130,000 cells/well in specific KSFM culture medium (Gibco®, Invitrogen) in a 24-well plate. The plate was placed in a humid incubator (37° C., 5% CO2) for 24 hours.
The different products at the respective concentrations (diluted in KSFM medium, 600 μl) were contacted with the cells for 48 hours. Untreated cells were used as the control condition.
Each treatment condition was evaluated on three wells of NHK cells.
After 24 hours of treatment, an intermediate sample of […] of supernatant was removed from each well and the plate returned to the incubator (37° C., 5% CO2).
After 48 hours of treatment, the remaining supernatant (≈350 μA) was collected and centrifuged.
Cell supernatants were assayed according to the method described in the Hyaluronan Enzyme-Linked Immunosorbent Assay kit (HA-ELISA, Echelon Biosciences Inc.). This is an ELISA assay with spectrophotometric detection at 405 nm (Safire, Tecan).
The assay was performed in duplicate for each well.
Optical densities (OD) measured on each sample were plotted on a graph (specific standard curve in the kit). The hyaluronic acid concentration was expressed in ng/ml.
The amount of hyaluronic acid released by the cells was determined for each well and for each treatment condition, relative to the cell content expressed as μg of protein. Thus, the final result was expressed as ng/ml of hyaluronic acid per μg of protein.
A mean value was calculated for wells treated with the same concentration of test product. This mean was compared with the mean of the control wells (Student t test−comparison of means−significant difference at 95% if p<0.05* and at 99% if p<0.01*).
The percent stimulation induced by the test products was determined by comparing the mean values of the control and treatment conditions: % Stimulation=(Treated−Control)/Control
The vitamin A propionate was dissolved in DMSO.

normal human fibroblasts = experiment: Proliferation of normal human fibroblasts treated with supernatant of treated keratinocytes (Cell Proliferation ELISA, BrdU); conditions: supernatant on fibroblasts 48 hrs
Method: This experiment evaluated the proliferation of normal human fibroblasts (dermal primocultures) after 48 hours of treatment with supernatant transferred from human keratinocytes.
The “Cell Proliferation ELISA, BrdU” test quantifies cell proliferation by measuring incorporation of bromodeoxyuridine (BrdU) during DNA synthesis followed by luminescence detection.
Cells were placed in the presence of the treatment for a specified time (incubator at 37° C., 5% CO2). The pyrimidine analogue 5-bromo-2′-deoxyuridine (BrdU) was then added and the cells were further incubated (37° C., 5% CO2) for a minimum of 2 hours, during which time BrdU is incorporated in place of thymidine into the DNA of proliferating cells.
The culture medium was removed, then the cells were fixed and the DNA denatured at the same time (antibody accessibility). An anti-BrdU-POD (peroxidase) antibody was added; this antibody binds to BrdU in newly synthesized DNA. The immune complex was then detected by addition of luminol substrate with measurement of luminescence (Genios, Tecan).
Primocultures of normal human fibroblasts (NHF) were obtained from cells isolated from skin specimens from plastic surgery.
NHF were seeded at a density of 5,000 cells/well in E-199 culture medium (Gibco® Invitrogen) in a 96-well Optilux white plate (BD Falcon 353947). The plate was placed in a humid incubator (37° C., 5% CO2) for 24 hours.
The two cell types—NHK and NHF—were plated 48 hours apart.
The different products at the respective concentrations (diluted in KSFM culture medium, 600 μl) were contacted with NHK cells for 48 hours. Control cells were left untreated. Each treatment conditions was evaluated on three wells of NHK cells.
After 48 hours, a fraction of the NHK cell supernatant was removed. Each sample of supernatant (2 times 100 μl) from a well on the NHK plate (24 wells) was transferred to two wells in the NHF plate already containing 100 μl of E-199 medium per well. […]
Cell proliferation was quantified by the method described in the “Cell Proliferation ELISA, BrdU” kit (Roche Applied Science No. 11669915001). This is an immunological assay with luminescence detection (Genios, Tecan).
The means of the luminescence values (RLU/s) of six wells with the same treatment condition were determined. […] Proliferation of treated cells was expressed as a percentage of the control(untreated cells−100%)(OD treated/OD control×100).

human skin explants = experiment: General morphology of living human skin explants (Masson trichrome)
Method: (§1) In particular, the following parameters were evaluated: • general skin morphology after staining with Masson trichrome, • acid glycosaminoglycan (GAG) content after alcian blue staining, • expression level of the hyaluronic acid CD44 receptor after immunolabeling of this receptor.
(§2) Thirty-three explants (approximately 10 mm in diameter) were taken from a person (P712AB36) undergoing abdominoplasty. The explants were divided into 11 groups of three explants and placed in special skin explant survival medium.
(§3) RetinOx+Day cream was applied on the explants at 1 mg/cm^2 on days D0, D2, D3, D6 and D8.
(§4) On D0, D2, D3, D6 and D8, 30 μA of products P1, P2 and P3 were deposited on filter paper disks placed on the explants.
(§5) On D0, the three explants in group CO were sampled and cut in two. One-half was fixed in ordinary Bouin's solution and the other half stored at −80° C. On D6 and D10, three explants from each group were sampled and treated in the same manner.
(§6) After 48 hours of fixing in ordinary Bouin's solution, samples were dried and impregnated in paraffin using a Leica 1020 automated tissue processor, then embedded according to operating procedure MO-H-153 using a Leica EG 1160 embedding station. 5 μm sections were prepared according to operating procedure MO-H-173 using a Leica RM 2125 Minot microtome and mounted on Superfrost® histologic glass microscope slides.
General morphology was studied on paraffin sections stained with Masson trichrome, Goldner variant, according to operating procedure MO-H-157.

[2] = test system: acid GAGs in the papillary dermis; experiment: Acid glycosaminoglycan (GAG) content of human skin explants (alcian blue staining, image analysis)
Method: as §1, §2, §3, §4, §5, §6
Acid GAGs were visualized with alcian blue staining. They were present throughout the papillary dermis.
In this zone, the GAGs under study are stained blue and correspond to acid GAGs.
The intensity of staining was quantified by image analysis.
Acid GAGs were quantified by image analysis. The results are expressed as the percentage of the analyzed area in Table 10 below.

[3] = test system: hyaluronic acid CD44 receptor; experiment: Expression of the hyaluronic acid CD44 receptor in human skin explants (immunolabeling)
Method: as §1, §2, §3, §4, §5
Frozen sections were labeled for the CD44 receptor using mouse anti-CD44 monoclonal antibody (Invitrogen MHC D4400) at 1:100 dilution incubated for 1 hour at room temperature with a biotin/streptavidin amplifier system with FITC. Nuclei were counterstained with propidium iodide.

With `CC(=O)N[C@H]1C(O)O[C@H](COP(=O)(O)O)[C@@H](O)[C@@H]1O` (stereo partly shown) [NAG6P, N-acetylglucosamine-6-phosphate] the “Hyaluronic acid” value ([1]; 5 mM, 48 hrs) was 1817.9 ± 145.1 ng/mL, the “Hyaluronic acid (ng/ml/μg prot.)” value ([1]; 5 mM, 48 hrs) was 122.1 ± 25.6 ng/ml/μg prot and the “% stimulation of hyaluronic acid synthesis” value (from here on “% stimulation”) ([1]; 5 mM, 48 hrs) was 73%*. For the same compound, the “Hyaluronic acid” value ([1]; 10 mM, 24 hrs) was 1067.3 ± 111.9 ng/mL, the “% stimulation” value ([1]; 10 mM, 24 hrs) was 35%* and the “% stimulation” value ([1]; 10 mM, 24 hrs, listed as N-acetylglucosamine-6-phosphate) was 35%. The “Hyaluronic acid” value ([1]; 10 mM, 48 hrs) was 2503.2 ± 552.8 ng/mL, the “Hyaluronic acid (ng/ml/μg prot.)” value ([1]; 10 mM, 48 hrs) was 165.7 ± 32.4 ng/ml/μg prot and the “% stimulation” value ([1]; 10 mM, 48 hrs) was 135%**. The “% stimulation” value ([1]; 10 mM, 48 hrs, listed as N-acetylglucosamine-6-phosphate) was 135%, the “Hyaluronic acid” value ([1]; 20 mM, 48 hrs) was 3076 ± 260.8 ng/mL and the “Hyaluronic acid (ng/ml/μg prot.)” value ([1]; 20 mM, 48 hrs) was 269.6 ± 55.3 ng/ml/μg prot. For the same compound, the “% stimulation” value ([1]; 20 mM, 48 hrs) was 282%**, the “% stimulation” value ([1]; 20 mM, 48 hrs, listed as N-acetylglucosamine-6-phosphate) was 282% and the RLU (normal human fibroblasts; 5 mM on keratinocytes 48 hrs) was 4985 ± 184 RLU. For the same compound, the RLU (normal human fibroblasts; 10 mM on keratinocytes 48 hrs) was 4903 ± 377 RLU, the General morphology (human skin explants; D10, NAG6P) was “considerable modifications of epidermal morphology” and the General morphology (human skin explants; D10, NAG6P 0.01% (product P3)) was “clear reorganization/strengthening of the dermal-epidermal junction”. For the same compound, the General morphology (human skin explants; D10, NAG6P, listed as N-acetylglucosamine-6-phosphate) was “does not cause acanthosis”, the “Acid GAGs, visual analysis” value ([2]; D6, NAG6P 1% to 0.01%) was “moderate along the DEJ and present throughout the papillary dermis, in a dose-dependent manner” and the “Percentage of area occupied by acid GAGs in the papillary dermis, % of analyzed area, Mean” value (“Percentage … % of analyzed area, Mean” below) ([2]; D10, NAG6P 0.01%) was 14.0%. For the same compound, the “Percentage … % of analyzed area, Mean” value ([2]; D10, NAG6P 0.1%) was 16.3%, the “Percentage … % of analyzed area, Mean” value ([2]; D10, NAG6P 1%) was 21.0% and the “Acid GAGs, visual analysis” value ([2]; D10, NAG6P 1% to 0.01%) was “moderately present along the DEJ and throughout the papillary dermis, in a dose-dependent manner”. The CD44 expression ([3]; D6, NAG6P 0.01%) was “overexpression was very moderate”, the CD44 expression ([3]; D6, NAG6P 0.1%) was “mildly overexpressed” and the CD44 expression ([3]; D6, NAG6P 1%) was “mildly overexpressed”. For the same compound, the CD44 expression ([3]; D10, NAG6P 0.01%, epidermis and papillary dermis) was “overexpression was very clear”.
